Test results reported in US20150315241A1, “Antibiotic Peptides” (priority 2007, published 2015).
Values after ≈ are worked out from the molar mass of the structure shown. Where two headings read alike, the source gives them in different places. Where a SMILES comes first, the peptide text is derived from it. [ ]: non-standard residue; d: D form. Arg(NO2) = N=C(NCCC[C@H](N)C(=O)O)N[N+](=O)[O-]; NMeR = CN[C@@H](CCCNC(=N)N)C(=O)O; Hyp = O=C(O)[C@@H]1C[C@@H](O)CN1; Cit = NC(=O)NCCC[C@H](N)C(=O)O; Orn = NCCC[C@H](N)C(=O)O

Assays:
E. coli BL 21 AI = test: Growth inhibition assay (MIC); type: cell-based, Escherichia coli; settings: 1% TSB, 37° C., 20 hrs
Method: (§1) The minimal inhibition concentrations (MIC) of the apidaecin-derived peptides and peptide-derivatives were determined by a growth inhibition assay using a serial peptide dilution in sterilized round-bottom 96-well plates (polystyrene, U-bottom, Greiner Bio-One GmbH) with a final volume of 100 μL per well. The bacteria, e.g., E. coli BL21 A1, were grown in nutrient broth (NB, Carl Roth GmbH+Co. KG, Karlsruhe, Germany) at 37° C. over night. To each well of the 96-well plate, 50 μL of the overnight culture adjusted to 5×10^6 CFU/mL in 1% TSB were added. Lyophilized peptides and peptidomimetics were dissolved in 1% TSB (tryptic soy broth) or water to give a final concentration of 250 μg/mL. Fifty μL of the peptide or peptidomimetics solution were added to the first well of a row on the plate and mixed. Fifty μL of the first well containing the peptide solution were transferred to the second well, mixed and again 50 μL transferred to the next well and so on. Thereby, a two-fold dilution series was obtained starting at 250 μg/mL in the first well down to 120 ng/mL in the 12th well of a row giving a final peptide or peptidomimetics concentration from 125 μg/mL (well 1) to 60 ng/mL (well 12). Plates were incubated at 37° C. for 20 hrs. The absorbance was measured at 595 nm using a TECAN micro plate spectrophotometer (Tecan, Germany). All peptides and peptidomimetics were measured in triplicates. Sterilized water was used as a negative control.
(§2) The bacteria strains were tested: • Eschericha coli 1103, 10233, BL 21 AI, DC 2, • Klebsiella pneumoniae 681, • Micrococcus luteus ATCC 10240, • Mycobacterium vaccae • Bactillus subtillis 347.

M. luteus ATCC 10240 = type: cell-based, Micrococcus luteus
Method: as §1, §2

Compound	MIC E. coli BL 21 AI (E. coli BL 21 AI) [µg/mL]	MIC M. luteus ATCC 10240 (M. luteus ATCC 10240; 1% TSB, 37° C., 20 hrs) [µg/mL]	MIC M. luteus ATCC 10240 (M. luteus ATCC 10240; ATCC 10240, 20 h) [µg/mL]
CC[C@H](C)[C@H](NC(=O)[C@H](CCCNC(=N)N)NC(=O)[C@@H]1CCCN1C(=O)[C@H](Cc1c[nH]cn1)NC(=O)[C@@H]1CCCN1C(=O)[C@@H]1CCCN1C(=O)[C@H](CCCNC(=N)N)NC(=O)[C@@H]1CCCN1C(=O)[C@H](CCCNC(N)=O)NC(=O)[C@@H]1CCCN1C(=O)[C@@H](NC(=O)[C@H](Cc1ccc(O)cc1)NC(=O)[C@@H](NC(=O)[C@@H]1CCCN1C(=O)[C@H](CCCNC(=N)N)NC(=O)[C@H](CC(N)=O)NC(=O)[C@H](CC(N)=O)NC(=O)CN)C(C)C)[C@@H](C)CC)C(N)=O [compound 89] (H-GNNRPVYIP[Cit]PRPPHPRI-NH2)	1.95 (≈ 0.913 µM)	15.63 (≈ 7.32 µM)	
CC[C@H](C)[C@H](NC(=O)[C@H](CCCNC(=N)N)NC(=O)[C@@H]1CCCN1C(=O)[C@H](Cc1c[nH]cn1)NC(=O)[C@@H]1CCCN1C(=O)[C@@H]1CCCN1C(=O)[C@H](CCCNC(=N)N)NC(=O)[C@@H]1C[C@@H](O)CN1C(=O)[C@H](CCCNC(N)=O)NC(=O)[C@@H]1CCCN1C(=O)[C@@H](NC(=O)[C@H](Cc1ccc(O)cc1)NC(=O)[C@@H](NC(=O)[C@@H]1CCCN1C(=O)[C@H](CCCNC(=N)N)NC(=O)[C@H](CC(N)=O)NC(=O)[C@H](CC(N)=O)NC(=O)CN)C(C)C)[C@@H](C)CC)C(N)=O [compound 91] (H-GNNRPVYIP[Cit][Hyp]RPPHPRI-NH2)	1.95 (≈ 0.906 µM)	7.81 (≈ 3.63 µM)	
CC[C@H](C)[C@H](NC(=O)[C@H](Cc1ccc(O)cc1)NC(=O)[C@@H](NC(=O)[C@@H]1CCCN1C(=O)[C@H](CCCNC(=N)N)NC(=O)[C@H](CC(N)=O)NC(=O)[C@H](CC(N)=O)NC(=O)[C@@H](N)CCCN)C(C)C)C(=O)N1CCC[C@H]1C(=O)N[C@@H](CCCN)C(=O)N1C[C@H](O)C[C@H]1C(=O)N[C@@H](CCCNC(=N)N)C(=O)N1CCC[C@H]1C(=O)N1CCC[C@H]1C(=O)N[C@@H](Cc1c[nH]cn1)C(=O)N1CCC[C@H]1C(=O)N[C@@H](CCCNC(=N)N)C(=O)N[C@@H](CC(C)C)C(N)=O [compound 102] (H-[Orn]NNRPVYIP[Orn][Hyp]RPPHPRL-NH2)	1.95 (≈ 0.9 µM)	1.95 (≈ 0.9 µM)	
CC[C@H](C)[C@H](NC(=O)[C@H](Cc1ccc(O)cc1)NC(=O)[C@@H](NC(=O)[C@@H]1CCCN1C(=O)[C@H](CCCNC(=N)N)NC(=O)[C@H](CC(N)=O)NC(=O)[C@H](CC(N)=O)NC(=O)[C@H](CCCN)NC(C)=O)C(C)C)C(=O)N1CCC[C@H]1C(=O)N[C@@H](CCCN)C(=O)N1C[C@H](O)C[C@H]1C(=O)N[C@@H](CCCNC(=N)N)C(=O)N1CCC[C@H]1C(=O)N1CCC[C@H]1C(=O)N[C@@H](Cc1c[nH]cn1)C(=O)N1CCC[C@H]1C(=O)N[C@@H](CCCNC(=N)N)C(=O)N[C@@H](CC(C)C)C(N)=O [compound 103] (Ac-[Orn]NNRPVYIP[Orn][Hyp]RPPHPRL-NH2)	1.95 (≈ 0.883 µM)	3.91 (≈ 1.77 µM)	
CC[C@H](C)[C@H](NC(=O)[C@H](Cc1ccc(O)cc1)NC(=O)[C@@H](NC(=O)[C@@H]1CCCN1C(=O)[C@H](CCCNC(=N)N)NC(=O)[C@H](CC(N)=O)NC(=O)[C@H](CC(N)=O)NC(=O)[C@@H](N)CCCN)C(C)C)C(=O)N1CCC[C@H]1C(=O)N[C@@H](CCCNC(=N)N)C(=O)N1CCC[C@H]1C(=O)N[C@@H](CCCNC(=N)N)C(=O)N1CCC[C@H]1C(=O)N1CCC[C@H]1C(=O)N[C@@H](Cc1c[nH]cn1)C(=O)N1CCC[C@H]1C(=O)N[C@@H](CCCNC(N)=O)C(=O)N[C@@H](CC(C)C)C(N)=O [compound 138] (H-[Orn]NNRPVYIPRPRPPHP[Cit]L-NH2)	64 (≈ 29.2 µM)		64 (≈ 29.2 µM)
CC[C@H](C)[C@H](NC(=O)[C@H](Cc1ccc(O)cc1)NC(=O)[C@@H](NC(=O)[C@@H]1CCCN1C(=O)[C@H](CCCNC(=N)N)NC(=O)[C@H](CC(N)=O)NC(=O)[C@H](CC(N)=O)NC(=O)CNC(C)=O)C(C)C)C(=O)N1CCC[C@H]1C(=O)N[C@@H](CCC(N)=O)C(=O)N1CCC[C@H]1C(=O)N[C@@H](CCCNC(=N)N)C(=O)N1CCC[C@H]1C(=O)N1CCC[C@H]1C(=O)N[C@@H](Cc1c[nH]cn1)C(=O)N1CCC[C@H]1C(=O)N[C@@H](CCCNC(N)=O)C(=O)N[C@@H](CC(C)C)C(N)=O [compound 148] (Ac-GNNRPVYIPQPRPPHP[Cit]L-NH2)	>125		>125
CC[C@H](C)[C@H](NC(=O)[C@H](Cc1ccc(O)cc1)NC(=O)[C@@H](NC(=O)[C@@H]1CCCN1C(=O)[C@H](CCCNC(=N)N)NC(=O)[C@H](CC(N)=O)NC(=O)[C@H](CC(N)=O)NC(=O)[C@H](CCCN)NC(C)=O)C(C)C)C(=O)N1CCC[C@H]1C(=O)N[C@@H](CCCNC(=N)N)C(=O)N1CCC[C@H]1C(=O)N[C@@H](CCCNC(=N)N)C(=O)N1CCC[C@H]1C(=O)N1CCC[C@H]1C(=O)N[C@@H](Cc1c[nH]cn1)C(=O)N1CCC[C@H]1C(=O)N[C@@H](CCCNC(N)=O)C(=O)N[C@@H](CC(C)C)C(N)=O [compound 150] (Ac-[Orn]NNRPVYIPRPRPPHP[Cit]L-NH2)	32 (≈ 14.3 µM)		32 (≈ 14.3 µM)
CC[C@H](C)[C@H](NC(=O)[C@H](Cc1ccc(O)cc1)NC(=O)[C@@H](NC(=O)[C@@H]1CCCN1C(=O)[C@H](CCCNC(=N)N)NC(=O)[C@H](CC(N)=O)NC(=O)[C@H](CC(N)=O)NC(=O)[C@H](CCCN)NC(C)=O)C(C)C)C(=O)N1CCC[C@H]1C(=O)N[C@@H](CCCNC(=N)N)C(=O)N1CCC[C@H]1C(=O)N[C@@H](CCCNC(=N)N)C(=O)N1CCC[C@H]1C(=O)N1CCC[C@H]1C(=O)N[C@@H](Cc1c[nH]cn1)C(=O)N1CCC[C@H]1C(=O)N[C@H](CCCNC(=N)N)C(=O)N[C@@H](CC(C)C)C(N)=O [compound 152] (Ac-[Orn]NNRPVYIPRPRPPHP[dR]L-NH2)	32 (≈ 14.3 µM)		32 (≈ 14.3 µM)
CC[C@H](C)[C@H](NC(=O)[C@H](Cc1ccc(O)cc1)NC(=O)[C@@H](NC(=O)[C@@H]1CCCN1C(=O)[C@H](CCCNC(=N)N)NC(=O)[C@H](CC(N)=O)NC(=O)[C@H](CC(N)=O)NC(=O)[C@H](CCCN)NC(C)=O)C(C)C)C(=O)N1CCC[C@H]1C(=O)N[C@@H](CCCNC(=N)N)C(=O)N1CCC[C@H]1C(=O)N[C@@H](CCCNC(=N)N)C(=O)N1CCC[C@H]1C(=O)N1CCC[C@H]1C(=O)N[C@@H](Cc1c[nH]cn1)C(=O)N1CCC[C@H]1C(=O)N(C)[C@@H](CCCNC(=N)N)C(=O)N[C@@H](CC(C)C)C(N)=O [compound 153] (Ac-[Orn]NNRPVYIPRPRPPHP[NMeR]L-NH2)	16 (≈ 7.12 µM)		32 (≈ 14.2 µM)
CC[C@H](C)[C@H](NC(=O)[C@H](Cc1ccc(O)cc1)NC(=O)[C@@H](NC(=O)[C@@H]1CCCN1C(=O)[C@H](CCCNC(=N)N)NC(=O)[C@H](CC(N)=O)NC(=O)[C@H](CC(N)=O)NC(=O)[C@H](CCCN)NC(C)=O)C(C)C)C(=O)N1CCC[C@H]1C(=O)N[C@@H](CCCNC(=N)N)C(=O)N1CCC[C@H]1C(=O)N[C@@H](CCCNC(=N)N)C(=O)N1CCC[C@H]1C(=O)N1CCC[C@H]1C(=O)N[C@@H](Cc1c[nH]cn1)C(=O)N1CCC[C@H]1C(=O)N[C@@H](CCCNC(N)=N[N+](=O)[O-])C(=O)N[C@@H](CC(C)C)C(N)=O [compound 154] (Ac-[Orn]NNRPVYIPRPRPPHP[Arg(NO2)]L-NH2)	16 (≈ 7.02 µM)		32 (≈ 14 µM)
H-GNNRPVYIAQPRPPHPAL-NH2 [compound 136]	>125		>125
H-GNNRPVYIAQPRPPHPRL-NH2 [compound 140]	>125		125
H-GNNRPVYIPQPRPPHPAL-NH2 [compound 139]	>125		>125
H-GNNRPVYIPQPRPPHPR-OH [compound 144]	>125		>125
H-GNNRPVYIPRPRPPHPRLV-OH [compound 69]	7.81		0.24
H-NNRPVYIPQPRPPHPRI-NH2 [compound 92]	3.91		31.25
H-RPVYIPQPRPPHPRL-NH2 [compound 142]	125		125
